Legend:
[1] = biological target: T1, human PPAR α (Homo sapiens, UniProt Q07869); assay: Exogeneous PPAR α agonist assay (GAL4 DNA binding domain/PPAR α ligand binding domain, luciferase) in HepG2 cells; assay type: cell-based; conditions: 25 μM compound, 48 hours, luciferase activity increase relative to the control
T1 construct: expressed in transfected cells; host or cells: HepG2 (ATCC HB-8065) or 293T cells (ATCC CRL-1573)
T1 sequence (Q07869 239-466 limits assumed): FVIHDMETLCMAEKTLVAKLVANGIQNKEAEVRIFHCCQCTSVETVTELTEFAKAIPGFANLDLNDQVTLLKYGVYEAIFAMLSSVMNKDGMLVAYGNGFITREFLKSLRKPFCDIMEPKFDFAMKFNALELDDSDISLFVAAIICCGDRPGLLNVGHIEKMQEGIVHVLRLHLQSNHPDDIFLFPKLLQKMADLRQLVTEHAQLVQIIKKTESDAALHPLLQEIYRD
Procedure: Step 1) Exogeneous PPAR α Agonist Assay
Cross-activation assay of the compounds of Examples 1 to 134 against human PPAR α was carried out using a DNA construct of PPAR α including its ligand binding domain and GAL4 DNA binding domain (Sher et al., Biochemistry 32, 5598-5604, 1993) to analyze whether any of the compounds binds to the ligand binding domain of PPAR α expressed by the construct to affect the PPAR α activity. When the GAL4 DNA binding domainm which is fused with PPAR α ligand binding domain, binds to UAS (upstream activation sequence) of firefly-luciferase, the luciferase is expressed. Therefore, the effect of each of the compounds of Examples on PPAR α activation can be evaluated by analyzing the activation of luciferase.
Specifically, 2×10^4 of HepG2 (ATCC HB-8065) or 293T cells (ATCC CRL-1573) were aliquotted into each well of a 96-well plate and cultured for overnight at 37° C. in a CO2 incubator (culture condition: DMEM, 10% FBS and 1% antibiotics).
The transformation of PPAR α DNA was traced as follows. First, a mixture of the following ingredients in amounts per well; Solution A (Promega) containing 50 ng of full length human PPAR α DNA, 50 ng of firefly-luciferase construct, 5 ng of Renilla-luciferase construct, 1.0 μl of PLUS™ reagent, and 8.3 μl of a serum-free medium containing no antibiotics; was prepared and kept at room temperature for 15 min. Solution B, which contained 0.5 μl of Lipofectamine™ reagent and 9.5 μl of serum-free medium without antibiotics per well, and Solution C, which contained 50 μl of serum-free medium per well), were prepared. Solutions A, B and C were mixed together to prepare lipofectamin-DNA complex, and the mixture was kept at room temperature for 15 min. Single layer of cells on each well of a 96-well plate were washed with serum-free DMEM, 70 μl of lipofectamine-DNA complex prepared above was added thereto, the plate was incubated at 37° C. in a 5% CO2 incubator for 3 hours to transform the cells, and […] of a diluted solution of each of the compounds of Examples 1 to 134 per well was added to each well to a final concentration 25 μM, and incubated at 37° C. in a CO2 incubator for 48 hours. Then, the medium was removed, 50 μl of passive lysis buffer (Promega) was added thereto, and the plate was shook at room temperature for 20 min to lysis cells. 40 μl of Luciferase Assay reagent of Dual Luciferase Kit […] per 20 μl of cell lysis buffer was added to the plate, followed by reacting at 20° C. for 8 seconds, and 40 μl of Stop & Glo reagent (Promega) as a stop solution was added thereto to quench the reaction. The luminescence intensities of F-luciferase and R-luciferase were measured with MicroLumat Plus (Berthord Technology).

[2] = biological target: T1, human PPAR α; assay: Exogeneous PPAR α agonist assay (GAL4 DNA binding domain/PPAR α ligand binding domain, luciferase) in 293T cells; assay type: cell-based; design: scale not given here; conditions: 25 μM compound, 48 hours, luciferase activity increase relative to the control
In short: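 HepG2 or 293T cells (2×10^4/well) lipofectamine-transfected 3 hours with PPAR α, UAS firefly-luciferase and Renilla-luciferase constructs. Compounds then added at 25 μM final and incubated 48 hours at 37° C. PPAR α activation measured as dual firefly/Renilla luciferase luminescence.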

Row | SMILES | Activity at 25 μM Step 1 HepG2 cell [1] | Activity at 25 μM Step 1 293T cell [2]
1 | CCN(CC)S(=O)(=O)N(CC(=O)O)Cc1cccc(OCc2nc(-c3ccc(C(F)(F)F)cc3)oc2C)c1 [Example 7, [N—(N,N-diethylamino)sulfonyl-N-[3-[[2-(4-trifluoromethylphenyl)-5-methyloxazol-4-yl]methoxy]benzyl]amino]acetic acid] | 54 | 3
2 | CCN(CC)S(=O)(=O)N(CC(=O)O)Cc1cccc(OCCc2nc(-c3ccc(C)cc3)oc2C)c1 [Example 63, [N—(N,N-diethylamino)sulfonyl-N-[3-[2-[2-(4-methylphenyl)-5-methyloxazol-4-yl]ethoxy]benzyl]amino]acetic acid] | 33 | 3
3 | Cc1oc(-c2ccc(C(F)(F)F)cc2)nc1COc1cccc(CN(CC(=O)O)S(=O)(=O)N(C)c2cccc(F)c2)c1 [Example 23, [N—[N-(3-fluorophenyl)-N-methylamino]sulfonyl-N-[3-[[2-(4-trifluoromethylphenyl)-5-methyloxazol-4-yl]methoxy]benzyl]amino]acetic acid] | 34 | 5
4 | C=CCN(C)S(=O)(=O)N(CC(=O)O)Cc1cccc(OCCc2nc(-c3ccc(C(F)(F)F)cc3)oc2C)c1 [Example 69, [N—(N-allyl-N-methylamino)sulfonyl-N-[3-[2-[2-(4-trifluoromethylphenyl)-5-methyloxazol-4-yl]ethoxy]benzyl]amino]acetic acid] | 40 | 2
5 | CCN(c1cccc(C)c1)S(=O)(=O)N(CC(=O)O)Cc1ccc(OCCc2nc(-c3ccc(C)cc3)oc2C)cc1 [Example 111, [N—(N-ethyl-N-m-tolylamino)sulfonyl-N-[4-[2-[2-(4-methylphenyl)-5-methyloxazol-4-yl]ethoxy]benzyl]amino]acetic acid] | 25 | 5
6 | Cc1oc(-c2ccc(C(F)(F)F)cc2)nc1CCOc1cccc(CN(CC(=O)O)S(=O)(=O)N(C)c2cccc(F)c2)c1 [Example 82, [N—[N-(3-fluorophenyl)-N-methylamino]sulfonyl-N-[3-[2-[2-(4-trifluoromethylphenyl)-5-methyloxazol-4-yl]ethoxy]benzyl]amino]acetic acid] | 26 | 2
7 | Cc1ccc(-c2nc(COc3cccc(C(C)N(CC(=O)O)S(=O)(=O)N(C)C(C)C)c3)c(C)o2)cc1 (stereo not shown) [Example 129, [N—(N-isopropyl-N-methylamino)sulfonyl-N-[1-[[3-(5-methyl-2-p-tolyloxazol-4-yl)methoxy]phenyl]ethyl]amino]acetic acid] | 43 | 3
8 | CN(c1ccc(Cl)cc1)S(=O)(=O)N(CC(=O)O)Cc1ccc(OCCc2coc(-c3ccccc3)n2)cc1 [Example 133, [N—[[N-(4-chlorophenyl)-N-methyl]amino]sulfonyl-N-[4-[(2-phenyloxazol-4-yl)ethoxy]benzyl]amino]acetic acid] | 34 | 4
9 | CN(C)S(=O)(=O)N(CC(=O)O)Cc1cccc(OCCc2coc(-c3ccccc3)n2)c1 [Example 131, [N—(N,N-dimethylarino)sulfonyl-N-[3-[(2-phenyloxazol-4-yl)ethoxy]benzyl]amino]acetic acid] | 41 | 5
10 | Cc1oc(-c2ccc(C(F)(F)F)cc2)nc1COc1cccc(CN(CC(=O)O)S(=O)(=O)N2CCCCC2)c1 [Example 11, [N-(piperidinyl)sulfonyl-N-[3-[[2-(4-trifluoromethylphenyl)-5-methyloxazol-4-yl]methoxy]benzyl]amino]acetic acid] | 44 | 4
11 | C=CCN(C)S(=O)(=O)N(CC(=O)O)Cc1cccc(OCc2nc(-c3ccc(C(F)(F)F)cc3)oc2C)c1 [Example 9, [N—(N-allyl-N-methylamino)sulfonyl-N-[3-[[2-(4-trifluoromethylphenyl)-5-methyloxazol-4-yl]methoxy]benzyl]amino]acetic acid] | 52 | 3
12 | CCN(CC)S(=O)(=O)N(CC(=O)O)C(C)c1cccc(OCc2nc(-c3ccc(C)cc3)oc2C)c1 (stereo not shown) [Example 128, [N—(N,N-diethylamino)sulfonyl-N-[1-[[3-(5-methyl-2-p-tolyloxazol-4-yl)methoxy]phenyl]ethyl]amino]acetic acid] | 25 | 2
13 | Cc1ccc(-c2nc(CCOc3cccc(CN(CC(=O)O)S(=O)(=O)N(C)C(C)C)c3)c(C)o2)cc1 [Example 64, [N—(N-isopropyl-N-methylamino)sulfonyl-N-[3-[2-[2-(4-methylphenyl)-5-methyloxazol-4-yl]ethoxy]benzyl]amino]acetic acid] | 30 | 2
14 | Cc1ccc(-c2nc(COc3cccc(C(C)N(CC(=O)O)S(=O)(=O)N(C)C)c3)c(C)o2)cc1 (stereo not shown) [Example 126, [N—(N,N-dimethylamino)sulfonyl-N-[1-[[3-(5-methyl-2-p-tolyloxazol-4-yl)methoxy]phenyl]ethyl]amino]acetic acid] | 62 | 4
15 | Cc1ccc(-c2nc(COc3cccc(CN([C@@H](C)C(=O)O)S(=O)(=O)N(C)C)c3)c(C)o2)cc1 [Example 124, (S)-2-[N—(N,N-dimethylamino)sulfonyl-N-[3-[(5-methyl-2-p-tolyloxazol-4-yl)methoxy]benzyl]amino]propionic acid] | 40 | 5
16 | C#CCN(C)S(=O)(=O)N(CC(=O)O)Cc1cccc(OCCc2nc(-c3ccc(C(F)(F)F)cc3)oc2C)c1 [Example 70, [N—(N-methyl-N-propargylamino)sulfonyl-N-[3-[2-[2-(4-trifluoromethylphenyl)-5-methyloxazol-4-yl]ethoxy]benzyl]amino]acetic acid] | 34 | 3
17 | Cc1ccc(-c2nc(CCOc3ccc(CN(CC(=O)O)S(=O)(=O)N(C)C(C)C)cc3)c(C)o2)cc1 [Example 102, [N—(N-isopropyl-N-methylamino)sulfonyl-N-[4-[2-[2-(4-methylphenyl)-5-methyloxazol-4-yl]ethoxy]benzyl]amino]acetic acid] | 46 | 4
18 | Cc1ccc(-c2nc(COc3cccc(C(C)N(CC(=O)O)S(=O)(=O)N4CCCC4)c3)c(C)o2)cc1 (stereo not shown) [Example 127, [N-(pyrrolidinyl)sulfonyl-N-[1-[[3-(5-methyl-2-p-tolyloxazol-4-yl)methoxy]phenyl]ethyl]amino]acetic acid] | 50 | 3
19 | CCN(c1cccc(C)c1)S(=O)(=O)N(CC(=O)O)Cc1cccc(OCc2nc(-c3ccc(C(F)(F)F)cc3)oc2C)c1 [Example 21, [N—(N-ethyl-N-m-tolylamino)sulfonyl-N-[3-[[2-(4-trifluoromethylphenyl)-5-methyloxazol-4-yl]methoxy]benzyl]amino]acetic acid] | 40 | 5
20 | Cc1ccc(-c2nc(CCOc3ccc(CN(CC(=O)O)S(=O)(=O)N(C)c4cccc(F)c4)cc3)c(C)o2)cc1 [Example 113, [N—[N-(3-fluorophenyl)-N-methylamino]sulfonyl-N-[4-[2-[2-(4-methylphenyl)-5-methyloxazol-4-yl]ethoxy]benzyl]amino]acetic acid] | 29 | 4

— patent US20070254882A1, “Sulfamide Derivatives and Pharmaceutical Composition for Upregulation of Lipid Metabolism Comprising Same” (CRYSTAL GENOMICS, INC., priority 2004, published 2007)
